Data published in PubChem BioAssay AID651703 (Broad Institute, 2012).
Several values for one entry are separate records, joined by “and”; a condition that tells them apart may be missing. Identical values can stand only once.

Biological target: Transforming acidic coiled-coil-containing protein 3 (Homo sapiens) (UniProt Q9Y6A5)
Experiment: ARNT/TACC3 interaction disruptors, potency, confirmation, biochemical, AlphaScreen, cherry-picked samples (AID 651703);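 also: TACC3 partner is the GST-tagged E629A mutant dimer; hits lower the signal meaning they disrupt ARNT binding to TACC3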
Conditions: AlphaScreen His-ARNT PAS-B / GST-TACC3 binding, luminescence

Row | Structure (SMILES) | AC50
1 | O=C(NCCCn1ccnc1)c1ccc2nccnc2c1 | 67.5 µM
2 | Cc1ccccc1Nc1nnc(SCC(=O)NC(=O)NCc2ccco2)s1 | 71.2 µM
3 | COc1cccc(C(=O)Oc2c(CN3CCOCC3)cc(Cl)c3cccnc23)c1 | 10.9 µM
4 | O=c1cc(C(F)(F)F)nc(-n2[nH]c3c(c2=O)CCCC3)[nH]1 | 28 µM
5 | O=S(=O)(c1cccc2cccnc12)N1CCN(Cc2ccc(OCCO)cc2)CC1 | 48.2 µM
6 | C[C@@H]1CN([C@H](C)CO)C(=O)c2cc(NC(=O)Nc3ccc(C(F)(F)F)cc3)ccc2O[C@@H](C)CCCCO[C@@H]1CN(C)Cc1ccc2c(c1)OCO2 | 38.1 µM
7 | O=C(Nc1nc(-c2ccccn2)cs1)c1cc(Cl)ccc1[N+](=O)[O-] | 3.07 µM
8 | CCOc1ccc(C2=Nn3c(nnc3-c3ccccn3)SC2)cc1 | 20.4 µM
9 | Cc1ccc(Nc2c(-c3ccccn3)nc3cccc(C)n23)cc1 | 3.62 µM
10 | COC(=O)Cc1cc(=O)n(-c2nc3ccccc3[nH]2)[nH]1 | 2.68 µM
11 | Cc1cccc(C(=O)Nc2nnc(-c3cccnc3)o2)c1 | 21.7 µM
12 | CS(=O)(=O)c1cccc(C(=O)Nc2nnc(C3=COCCO3)o2)c1 | 45.6 µM
13 | Oc1cc(NCc2ccc(F)cc2)cc2cccnc12 | 8.9 µM
14 | Cn1c(-c2ccccc2)cnc1N | 37.5 µM
15 | C/C(CC(=O)Nc1ccc(N(C)C)cc1)=N\NC(=O)c1ccccn1 | 12.3 µM
16 | c1ccc(-c2csc(Nc3nc(-c4ccccn4)nnc3-c3ccccc3)n2)cc1 | 0.897 µM
17 | CS(=O)(=O)c1ccccc1-c1nnc(NC(=O)c2ccc3ncsc3c2)o1 | 25.4 µM
18 | Cc1ccc(Nc2nc(N)nc(CN3CCCCCC3)n2)cc1 | 34.4 µM
19 | Cc1cc(C(=O)N/N=C/c2c(CO)cnc(C)c2O)c2ccccc2n1 | 3.5 µM
20 | Cc1nc2ccccc2c(=O)n1/N=C/c1ccc(O)c(O)c1O | 25.9 µM
21 | O=S(=O)(N[C@H]1CC[C@H](CCn2cc(-c3ccccn3)nn2)O[C@H]1CO)c1cccc(F)c1 | 21.8 µM
22 | Brc1ccc(OCc2nc(-c3ccccn3)n[nH]2)cc1 | 3.6 µM
23 | CCNC(=O)C(=O)N/N=C/c1cc([N+](=O)[O-])ccc1O | 2.62 µM

Row | Structure (SMILES) | AC50
24 | O=C(Oc1cccc2cccnc12)c1ccco1 | 9.83 µM
25 | Cc1nnc(NC(=O)c2ccc(S(=O)(=O)N3CCCCC3C)cc2)o1 (stereo unspecified) | 52 µM
26 | Oc1c(Cl)cc(CN2CCOCC2)c2cccnc12 | 1.15 µM
27 | COc1ccc(OC)c(NC(=O)CSc2ccc3nnc(-c4ccccn4)n3n2)c1 | 34.3 µM
28 | O=C(N/N=C(\c1ccccc1)c1cccnc1)c1cccc(F)c1 | 21.7 µM
29 | CC(C)(C)CCNc1nc(-c2ccccn2)nnc1-c1ccccc1 | 0.717 µM and < 0.5 µM
30 | CCC(=O)NC(C)c1cc(Cl)c2cccnc2c1O (stereo unspecified) | 4.72 µM
31 | CO[C@@H]1CN(C)C(=O)c2ccc(NC(=O)c3ccccn3)cc2OC[C@@H](C)N(C(=O)C2CC2)C[C@H]1C | 13.1 µM
32 | O=C(CSc1ccc2nnc(-c3ccccn3)n2n1)Nc1ccccc1C(F)(F)F | 50.7 µM
33 | N#CC1=C(N)Oc2c(ccc3cccnc23)C1c1ccncc1 (stereo unspecified) | 26.9 µM
34 | COc1ccc(NC(=O)N[C@@H]2CC[C@H](CCn3cc(-c4ccccn4)nn3)O[C@@H]2CO)cc1 | 21.5 µM
35 | Cc1ccccc1CS(=O)(=O)Cc1ccc(C(=O)NCc2ccccn2)o1 | 31.6 µM
36 | Brc1ccc(-c2nn3c(-c4ccccn4)nnc3s2)o1 | 9.12 µM
37 | c1ccc(CCNc2nc(-c3ccccn3)nc3ccccc23)cc1 | 20.1 µM
38 | O=[N+]([O-])c1cccc(/C=N/Nc2nc(NCc3ccccc3)nc(N3CCOCC3)n2)c1O | 2.29 µM
39 | C[C@@H]1CN([C@H](C)CO)C(=O)Cc2cc(N(C)C)ccc2O[C@H]1CN(C)Cc1ccc(Oc2ccccc2)cc1 | 27.5 µM
40 | N#CCC(=O)N/N=C\c1ccccc1OC/C=C/c1ccccc1 | 6.51 µM
41 | O=C(O)CSc1c(O)c2ccccc2[nH]c1=O | 34.5 µM
42 | c1ccc(-c2nnc(-c3ccccn3)nc2NCCN2CCOCC2)cc1 | 0.593 µM
43 | O=C(CSc1ccc(-c2ccccn2)nn1)c1ccccc1 | 3.36 µM
44 | Cc1ccc2cc(C3C(C#N)=C(N)Oc4c3ccc3cccnc43)c(=O)[nH]c2c1 (stereo unspecified) | 7.43 µM
45 | COc1ccc(NC(=O)CSc2c(C)nn(-c3nnc(C)c(=O)[nH]3)c2C)cc1 | 25.2 µM
46 | CCC(C)c1c(N)n(S(=O)(=O)c2ccc(C)cc2)oc1=O (stereo unspecified) | 44.1 µM

Row | Structure (SMILES) | AC50
47 | NC(=O)CSc1nnc(-c2ccc(O)cc2)n1Cc1ccco1 | 40.8 µM
48 | O=C(Nc1nnc(-c2ccc(F)cc2)o1)c1ccco1 | 37 µM
49 | COc1ccc(NC(=O)Nc2ccc3c(c2)CC(=O)N([C@H](C)CO)C[C@H](C)[C@@H](CN(C)Cc2ccc(Oc4ccccc4)cc2)O3)cc1 | 23.6 µM
50 | O=C(N/N=C/c1c(O)n(CCC2=CCCCC2)c(=O)[nH]c1=O)c1ccccc1 | 19.5 µM
51 | Cc1ccc(S(=O)(=O)CCC(=O)Nc2nc(-c3ccccn3)cs2)cc1 | 10.5 µM
52 | CN1CCN(C(c2ccccn2)c2cc(Cl)c3cccnc3c2O)CC1 (stereo unspecified) | 3.98 µM
53 | O=c1oc2c3c4c(cc2s1)CCCN4CCC3 | 26.1 µM
54 | COc1cc(NCCCCCCN)c2ncccc2c1OC | 16.1 µM
55 | c1ccc(-c2nnc(-c3ccccn3)nc2N2CCC(c3ccccc3)C2)cc1 (stereo unspecified) | 4.75 µM
56 | c1ccc(CCNc2nc(-c3ccccn3)nnc2-c2ccccc2)cc1 | 0.513 µM
57 | O=C(CSc1ccc(-c2ccccn2)nn1)NC1CCCCC1 | 2.56 µM
58 | COc1cc(OC)cc(C(=O)Nc2nnc(-c3cccnc3)o2)c1 | 20.8 µM
59 | Oc1c(CN2CCN(c3ccccc3)CC2)cc(Br)c2cccnc12 | 1.07 µM
60 | CCC(COC)Oc1cc(NCc2ccccc2)c2ncn(C(C)C)c2c1 (stereo unspecified) | 23.9 µM
61 | O=C(N[C@@H]1CC[C@H](CCn2cc(-c3ccccn3)nn2)O[C@@H]1CO)c1ccncc1 | 8.23 µM
62 | Cc1cc(C)c(NC(=O)CSc2nnc(-c3ccccn3)n2N)c(Cl)c1 | 37.1 µM
63 | Clc1ccc(OCc2nc(-c3ccccn3)n[nH]2)cc1 | 5.91 µM
64 | O=C(Nc1ccccc1C(F)(F)F)c1ncn[nH]1 | 13.1 µM
65 | O=C(Nc1ccccc1C(=O)Nc1ccccc1C(=O)O)c1ccccc1 | 65.3 µM
66 | Cc1ccc(C2(C)NC(=O)N(CC(=O)Nc3nc(-c4ccccn4)cs3)C2=O)cc1 (stereo unspecified) | 4.67 µM
67 | CC(=O)c1cccc(NC(=O)CSc2ccc(-c3ccccn3)nn2)c1 | 3.21 µM
68 | CCC(=O)NC(c1ccc(N(C)C)cc1)c1c(O)ccc2ccccc12 (stereo unspecified) | 35.5 µM
69 | CC(=O)[C@H]1[C@@H]2C(=O)N(c3cccc(Cl)c3)C(=O)[C@@H]2[C@H]2c3ccccc3C=CN21 | 6.22 µM

Row | Structure (SMILES) | AC50
70 | c1ccc(-c2nnc(Nc3nc(-c4ccccn4)nnc3-c3ccccc3)s2)cc1 | 1.74 µM
71 | O=C(Nc1nnc(C2=COCCO2)o1)c1ccc([N+](=O)[O-])cc1 | 34.3 µM
72 | N[C@H]1CC[C@@H](CCn2cc(-c3ccccn3)nn2)O[C@H]1CO | 1.42 µM
73 | O=S(=O)(N[C@H]1CC[C@@H](CCn2cc(-c3ccccn3)nn2)O[C@@H]1CO)c1cccc(F)c1 | 10.9 µM
74 | Cc1ccc(C(=O)Nc2cccc(C(=O)N/N=C/c3ccc(O)cc3)c2)cc1 | 32.7 µM
75 | O=C(Cn1cnc([N+](=O)[O-])n1)N/N=C/c1cc(Cl)ccc1O | 4.77 µM
76 | O=c1cc(CSc2ccc(Cl)cc2)nc(-c2ccccn2)[nH]1 | 3.69 µM
77 | Cc1sc2ncnc(N/N=C/c3ccccc3O)c2c1C | 10.1 µM
78 | c1ccc(CNc2nc(-c3ccccn3)nnc2-c2ccccc2)cc1 | < 0.5 µM
79 | COc1cc(OC)c2c(-c3ccccc3)cc(=O)oc2c1C(CCN1CCCCC1)c1ccc(N(C)C)cc1 (stereo unspecified) | 7.83 µM
80 | O=c1[nH][nH]c(=O)c2nc(Nc3ccccc3)ncc12 | 66.1 µM
81 | O=C(CSc1ccc(-c2ccccn2)nn1)NCc1ccc(F)cc1 | 6.65 µM
82 | Oc1c(C(c2ccccc2Cl)N2CCCC2)ccc2cccnc12 (stereo unspecified) | 1.85 µM
83 | Cc1ccc(C(=O)Nc2nc(-c3ccccn3)cs2)cc1S(=O)(=O)N1CCOCC1 | 2.37 µM
84 | Cc1nc2ncccn2c1-c1csc(Nc2ccc(O)cc2)n1 | 4.61 µM
85 | O=C(N[C@H]1CC[C@@H](CCn2cc(-c3ccccn3)nn2)O[C@@H]1CO)c1ccccc1 | 15.5 µM
86 | Oc1c(CN2CCOCC2)cc(COCc2ccccc2)c2cccnc12 | 0.614 µM
87 | CNCc1cn2cc(Cl)ccc2n1 | 21 µM
88 | O=C(CSc1ccc2nnc(-c3ccccn3)n2n1)Nc1ccc2c(c1)OCO2 | 46.5 µM
89 | O=C(Nc1nnc(C2=COCCO2)o1)c1ccc(Cl)cc1 | 17.7 µM
90 | Cc1nnc(NC(=O)c2ccc(S(=O)(=O)N3CC(C)OC(C)C3)cc2)o1 (stereo unspecified) | 44.6 µM
91 | CCCOc1ccc(/C=N/Nc2cc(N3CCOCC3)ncn2)c(O)c1 | 8 µM
92 | CCOc1ccccc1C(=O)OCC(=O)Nc1nnc(-c2ccccc2)o1 | 23.3 µM

Row | Structure (SMILES) | AC50
93 | O=C(NN=Cc1c(O)ccc2ccccc12)c1ccncc1 | 9.94 µM
94 | O=C(Oc1c(CN2CCOCC2)cc(Cl)c2cccnc12)c1ccccc1 | 18.3 µM
95 | c1ccc(CNCCN2CCNCC2)nc1 | 6.79 µM
96 | C[C@H]1c2cccc(O)c2C(O)=C2C(=O)[C@]3(O)C(O)=C(C(N)=O)C(=O)[C@@H](N(C)C)C3[C@@H](O)C21 (stereo partly specified) | 33.5 µM
97 | O=C(COC(=O)c1ccc(O)cc1O)Nc1nnc(-c2ccccc2)o1 | 13.7 µM
98 | N#Cc1ccc(C(=O)Nc2nnc(-c3ccccn3)o2)cc1 | 22.4 µM
99 | CCOC(=O)N1CCN(C(c2cccnc2)c2ccc3cccnc3c2O)CC1 (stereo unspecified) | 4.64 µM
100 | O=C(NCCCn1ccnc1)C(=O)NCC(c1ccco1)N1CCN(c2ccccc2)CC1 (stereo unspecified) | 6.85 µM
101 | CC(C)[C@H](NC(=O)c1ccccc1Cl)C(=O)Nc1nc(-c2ccccn2)cs1 | 6.72 µM
102 | O=C(NCCCNCCCNC(=O)c1ccc(/C=N/O)nc1)c1ccc(/C=N/O)nc1 | 4.96 µM
103 | C/C(=N\NC(=O)C(C)Oc1ccc([N+](=O)[O-])cc1)c1ccccn1 (stereo unspecified) | 4.39 µM
104 | O=C(Nc1nnc(-c2cccs2)o1)c1ccc(S(=O)(=O)N2CCOCC2)cc1 | 17.1 µM
105 | CC1(c2ccccc2)NC(=O)N(CC(=O)Nc2nc(-c3ccccn3)cs2)C1=O (stereo unspecified) | 6.64 µM
106 | O=C(NN=C(c1ccccc1)c1ccccn1)c1ccccc1 | 16.9 µM
107 | O=S(=O)(N[C@@H]1CC[C@@H](CCn2cc(-c3ccccn3)nn2)O[C@H]1CO)c1cccc(Cl)c1 | 15.3 µM
108 | O=C(Nc1nc(-c2ccccn2)cs1)c1ccc(F)c(S(=O)(=O)N2CCOCC2)c1 | 2.76 µM
109 | O=C(CN1C(=O)C2C3C=CC(C3)C2C1=O)Nc1nc(-c2ccccn2)cs1 (stereo unspecified) | 6.76 µM
110 | N/C(=N\OS(=O)(=O)c1ccc(Cl)cc1)c1ccccn1 | 22.5 µM
111 | Cc1ccc(NC(=O)CN(C)C(=O)COc2cccc3cccnc23)cc1 | 41.7 µM
